Converted amounts (≈) assume the structure as drawn.
Experiments:
[1] = Minimum inhibitory concentration (MIC) of compound expressed as geometric mean of various bacterias.*; assay type: functional
Salmonella typhimurium [2] = experiment: Compound was tested for the mutagenicity activity in the Salmonella Typhimurium reverse mutation assay; +-indicates the levels of mutagenicity as the number of revertant colonies obtained increases 1.5-2 times; assay type: functional, organism-based; details: Salmonella enterica subsp. enterica serovar Typhimurium
Salmonella typhimurium [3] = experiment: Compound was tested for the mutagenicity activity in the Salmonella Typhimurium reverse mutation assay;(+) - low levels of mutagenicity; assay type: functional, organism-based; details: Salmonella enterica subsp. enterica serovar Typhimurium
Salmonella typhimurium [4] = experiment: Compound was tested for the mutagenicity activity in the Salmonella Typhimurium reverse mutation assay; ++/+++-indicates the levels of mutagenicity as the number of revertant colonies obtained increases 5/10 times; assay type: functional, organism-based; details: Salmonella enterica subsp. enterica serovar Typhimurium
Salmonella typhimurium [5] = experiment: Compound was tested for the mutagenicity activity in the Salmonella Typhimurium reverse mutation assay; (+) - low levels of mutagenicity; assay type: functional, organism-based; details: Salmonella enterica subsp. enterica serovar Typhimurium
[6] = Minimum inhibitory concentration (MIC) of compound expressed as geometric mean of various bacterias.; assay type: functional
Salmonella typhimurium [7] = experiment: Compound was tested for the mutagenicity activity in the Salmonella Typhimurium reverse mutation assay (+) - low levels of mutagenicity; assay type: functional, organism-based; details: Salmonella enterica subsp. enterica serovar Typhimurium

Row | Compound | MIC [1] | further results
1 | Cc1ncc([N+](=O)[O-])n1CCO [METRONIDAZOLE] | 1.46 µM (≈ 0.25 µg/mL) | –
2 | COc1cc(C(O)c2ncc([N+](=O)[O-])n2C)c(O)c(C(C)(C)C)c1 (centres undefined) | 28.2 µM (≈ 9.46 µg/mL) | –
3 | Cn1c([N+](=O)[O-])cnc1C(O)c1cccc(C2C3C[C@H]4C[C@@H](C3)C[C@@H]2C4)c1O (some centres undefined) | 3.84 µM (≈ 1.47 µg/mL) | –
4 | Cn1c([N+](=O)[O-])cnc1C(O)c1cccc(C2CCCCC2)c1O (centres undefined) | 4.68 µM (≈ 1.55 µg/mL) | Mutagenicity (Salmonella typhimurium [2]): Levels of mutagencity as the number of revertant colonies obtained increases 1.5-2 times
5 | Cn1c([N+](=O)[O-])cnc1C(O)c1cc(Cl)cc(C2C3C[C@H]4C[C@@H](C3)C[C@@H]2C4)c1O (some centres undefined) | 6.78 µM (≈ 2.83 µg/mL) | Mutagenicity (Salmonella typhimurium [3]): low levels of mutagenicity
6 | Cn1c([N+](=O)[O-])cnc1C(O)c1cccc(C23C[C@H]4C[C@@H](C2)C[C@@H](C3)C4)c1O (some centres undefined) | 4.46 µM (≈ 1.71 µg/mL) | Mutagenicity (Salmonella typhimurium [2]): Levels of mutagencity as the number of revertant colonies obtained increases 1.5-2 times
7 | Cn1c([N+](=O)[O-])cnc1C(O)c1cc(C(C)(C)C)ccc1O (centres undefined) [ABUNIDAZOLE] | 13.1 µM (≈ 4 µg/mL) | Mutagenicity (Salmonella typhimurium [4]): ++/+
8 | COc1cc(C(O)c2ncc([N+](=O)[O-])n2C)c(O)c(C2C3C[C@H]4C[C@@H](C3)C[C@@H]2C4)c1 (some centres undefined) | 4.21 µM (≈ 1.74 µg/mL) | Mutagenicity (Salmonella typhimurium [5]): low levels of mutagenicity
9 | Cn1c([N+](=O)[O-])cnc1C(O)c1cc(C2CCCCC2)ccc1O (centres undefined) | – | MIC [6]: 8.82 µM (≈ 2.92 µg/mL); Mutagenicity (Salmonella typhimurium [7]): low levels of mutagenicity
10 | Cn1c([N+](=O)[O-])cnc1C(O)c1cc(C2C3C[C@H]4C[C@@H](C3)C[C@@H]2C4)ccc1O (some centres undefined) | 1.8 µM (≈ 0.69 µg/mL) | –
11 | Cn1c([N+](=O)[O-])cnc1C(O)c1cc(C23C[C@H]4C[C@@H](C2)C[C@@H](C3)C4)ccc1O (some centres undefined) | 2.43 µM (≈ 0.932 µg/mL) | –
12 | Cn1c([N+](=O)[O-])cnc1C(O)c1cc(F)cc(C2C3C[C@H]4C[C@@H](C3)C[C@@H]2C4)c1O (some centres undefined) | 3.97 µM (≈ 1.59 µg/mL) | Mutagenicity (Salmonella typhimurium [3]): low levels of mutagenicity

Source: ChEMBL document CHEMBL1129130, “Preparation, antimicrobial evaluation and mutagenicity of differently substituted [2-hydroxyaryl]-[1-methyl-5-nitro-1H-2-imidazolyl]methanols” (1996)
